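Values below derive from 48-hour exposures of cells grown in 96-well plates, with endpoints linearly interpolated between the two concentrations bracketing the appropriate inhibition level. GI50: concentration for 50% inhibition of growth.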 Active and inactive are the calls of the source. Cut-off read from the data, not from the text of the source: active = GI50 up to about 1.1 µM and inactive = higher.
How the values were obtained:
Assay in all cases: inhibition of tumour cell growth, NCI panel, 48 h
CCRF-CEM = system: CCRF-CEM
CAKI-1 = system: CAKI-1
OVCAR-5 = system: OVCAR-5
Malme-3M = system: Malme-3M
IGROV-1 = system: IGROV-1
UO-31 = system: UO-31
A498 = system: A498
UACC-257 = system: UACC-257
NCI-H226 = system: NCI-H226
SW-620 = system: SW-620
HCT-15 = system: HCT-15
MOLT-4 = system: MOLT-4
LOX IMVI = system: LOX IMVI
OVCAR-3 = system: OVCAR-3
SNB-75 = system: SNB-75
K562 = system: K562
HL-60 = system: HL-60

| SMILES | GI50 (CCRF-CEM) | GI50 (CAKI-1) | GI50 (OVCAR-5) | GI50 (Malme-3M) | GI50 (IGROV-1) | GI50 (UO-31) | GI50 (A498) | GI50 (UACC-257) | GI50 (NCI-H226) | GI50 (SW-620) | GI50 (HCT-15) [µM] | GI50 (MOLT-4) | GI50 (LOX IMVI) | GI50 (OVCAR-3) | GI50 (SNB-75) | GI50 (K562) | GI50 (HL-60) |
| --- | --- | --- | --- | --- | --- | --- | --- | --- | --- | --- | --- | --- | --- | --- | --- | --- | --- |
| CC(C)OP(=S)(NC(=S)c1ccccc1)OC(C)C | > 100 µM (inactive) | > 100 µM (inactive) | > 100 µM (inactive) | > 100 µM (inactive) | > 100 µM (inactive) | > 100 µM (inactive) | > 100 µM (inactive) | > 100 µM (inactive) | > 100 µM (inactive) | > 100 µM (inactive) | > 100 | > 100 µM (inactive) | > 100 µM (inactive) | > 100 µM (inactive) | > 100 µM (inactive) | > 100 µM (inactive) |  |
| O=C(c1ccccc1)C1OC12C(=O)Nc1ccccc12 (centres undefined) | 5.68 µM (inactive) | 20.8 µM (inactive) | > 100 µM (inactive) | 29.6 µM (inactive) | 47.6 µM (inactive) | 26.5 µM (inactive) | 73.1 µM (inactive) | 35.7 µM (inactive) | 33.4 µM (inactive) | 21.4 µM (inactive) | > 10 | 8.15 µM (inactive) | 45 µM (inactive) | 34.8 µM (inactive) | 15.2 µM (inactive) | 4.5 µM (inactive) | 3.27 µM (inactive) |
| CCOc1cc2c(cc1O)/C(=N\O)C[C@@H]1[C@@H]2CC[C@]2(C)[C@@H](O)CC[C@@H]12 |  | < 0.0235 µM (active) | 5.85 µM (inactive) |  | 0.628 µM (active) | 0.147 µM (active) | < 0.0272 µM (active) | 33.3 µM (inactive) | 0.0817 µM (active) |  | < 0.0199 | < 0.023 µM (active) | < 0.0363 µM (active) |  | < 0.01 µM (active) | < 0.0173 µM (active) | < 0.0155 µM (active) |
| O=C1C=CC2(O)OCC3C=C4O[C@@H]5OC6(CCCCC6)O[C@@H]5C4[C@@H]2[C@@H]13 (some centres undefined) | 8.73 µM (inactive) | 22.7 µM (inactive) | 31.8 µM (inactive) | 30.3 µM (inactive) | 56.4 µM (inactive) | 18.6 µM (inactive) | 72.4 µM (inactive) | 17.8 µM (inactive) | 33.6 µM (inactive) | 27.4 µM (inactive) | 17 | 9.25 µM (inactive) | 42.6 µM (inactive) | 24.2 µM (inactive) | 35.6 µM (inactive) | 14.5 µM (inactive) | 16.5 µM (inactive) |
| c1ccc2c(CNCCCCCCCCNCc3cccc4ccccc34)cccc2c1 | 1.85 µM (inactive) | 1.98 µM (inactive) | 2 µM (inactive) | 1.95 µM (inactive) | 4.55 µM (inactive) | 1.87 µM (inactive) | 14.7 µM (inactive) | 1.87 µM (inactive) | 11.7 µM (inactive) | 1.8 µM (inactive) | 1.73 | 2.02 µM (inactive) | 1.23 µM (inactive) | 10.6 µM (inactive) | 1.9 µM (inactive) | 0.679 µM (active) | 1.86 µM (inactive) |
| O=C(O)c1[nH]c(C(=O)O)c(CC(F)(F)C(F)(F)C(F)(F)F)c1CC(F)(F)C(F)(F)C(F)(F)F | > 100 µM (inactive) | > 100 µM (inactive) | > 100 µM (inactive) | > 100 µM (inactive) | > 100 µM (inactive) | > 100 µM (inactive) | > 100 µM (inactive) | > 100 µM (inactive) | > 100 µM (inactive) | > 100 µM (inactive) | > 100 |  | > 100 µM (inactive) | > 100 µM (inactive) | > 100 µM (inactive) | > 100 µM (inactive) | > 100 µM (inactive) |
| CCCCOC1CC2(c3ccc(OC)cc3)C(=O)c3ccccc3N2O1 (centres undefined) | 31.5 µM (inactive) | 41.6 µM (inactive) | > 10 µM (inactive) | 19.2 µM (inactive) | > 10 µM (inactive) | > 10 µM (inactive) | > 10 µM (inactive) | 16 µM (inactive) | > 10 µM (inactive) | 65 µM (inactive) | > 10 | 19 µM (inactive) | > 10 µM (inactive) | 56.1 µM (inactive) | > 100 µM (inactive) | 26.5 µM (inactive) |  |
| CCCCCCCCCCCCCP(=O)(O)OCC | > 100 µM (inactive) |  | > 100 µM (inactive) | > 100 µM (inactive) | > 100 µM (inactive) | > 100 µM (inactive) | > 100 µM (inactive) | > 100 µM (inactive) | > 100 µM (inactive) | > 100 µM (inactive) | > 100 |  | > 100 µM (inactive) | > 100 µM (inactive) | > 100 µM (inactive) |  | > 100 µM (inactive) |
| Cc1nc(-c2nc(C)c(C(=O)NNC(=O)C[n+]3ccccc3)s2)sc1C(=O)NNC(=O)C[n+]1ccccc1 | 41.3 µM (inactive) | 18.6 µM (inactive) | > 100 µM (inactive) | > 100 µM (inactive) | 70.6 µM (inactive) | 25.9 µM (inactive) | 58.6 µM (inactive) | 94.2 µM (inactive) | 39.5 µM (inactive) | > 100 µM (inactive) | 56.4 | 22.7 µM (inactive) | 66.2 µM (inactive) | 90.2 µM (inactive) | 25.5 µM (inactive) | 78.2 µM (inactive) | 40.2 µM (inactive) |
| O=C1/C(=C\c2ccccc2)C2/C(=C\c3ccccc3)C(=O)/C(=C\c3ccccc3)C2/C1=C\c1ccccc1 (centres undefined) | 0.34 µM (active) | 2.67 µM (inactive) | 1.41 µM (inactive) | 1.77 µM (inactive) | 2.01 µM (inactive) | 1.7 µM (inactive) |  | 1.79 µM (inactive) |  | 1.55 µM (inactive) | 1.32 | 0.437 µM (active) | 0.316 µM (active) | 1.73 µM (inactive) | 17.3 µM (inactive) | 0.565 µM (active) | 0.608 µM (active) |
| C=CCN1/C(=C2\SC(=S)N(c3ccc(C)cc3)C2=O)Sc2c1nc[nH]c2=O | > 100 µM (inactive) | > 100 µM (inactive) | > 100 µM (inactive) | 78.2 µM (inactive) | 64.9 µM (inactive) | > 100 µM (inactive) | > 100 µM (inactive) | > 100 µM (inactive) | > 100 µM (inactive) | 65.3 µM (inactive) | 47 | 58.9 µM (inactive) | 33.9 µM (inactive) | > 100 µM (inactive) |  | > 100 µM (inactive) | > 100 µM (inactive) |
| CNC(=O)NCCCC(NC(C)=O)C(=O)NCc1ccccc1 (centres undefined) | > 100 µM (inactive) | > 100 µM (inactive) | > 100 µM (inactive) | > 100 µM (inactive) | > 100 µM (inactive) | > 100 µM (inactive) | > 100 µM (inactive) | > 100 µM (inactive) | > 100 µM (inactive) | > 100 µM (inactive) | > 100 | > 100 µM (inactive) | > 100 µM (inactive) | > 100 µM (inactive) | 42.2 µM (inactive) | > 100 µM (inactive) |  |
| O=[N+]([O-])c1ccc(Cl)cc1C1SCc2nc3ccccc3n21 (centres undefined) | 34.8 µM (inactive) | 33 µM (inactive) |  | 99.8 µM (inactive) | 80.5 µM (inactive) | 22.1 µM (inactive) | 23.6 µM (inactive) | 45.2 µM (inactive) |  | 50.6 µM (inactive) | 31 | 36.3 µM (inactive) |  | 54.1 µM (inactive) | 16.3 µM (inactive) | 33.1 µM (inactive) | 31 µM (inactive) |
